Experimental data reported in patent US11465984B2, “Compound having ERK kinase inhibitory activity and use thereof” (SHANGHAI HAIHE PHARMACEUTICAL CO., LTD., priority 2017, dated 2022).
Where two headings read alike, the source gives them in different places.

Target: ERK2 kinase (Homo sapiens (Human), UniProt P28482)
Experiment: In vitro enzyme activity assay, ERK2 kinase (Z'-LYTE)
Assay type: biochemical
Description: Half inhibitory activity of the compounds of the invention against ERK2 kinase (IC50 value) was determined in this Example.
• Enzyme: extracellular signal-regulated kinase ERK2 kinase (PV3595, Invitrogen) • Kit: Z′-LYTE® Protein Kinase Assay Kit-Ser/Thr 3 Peptide (PV3176, Invitrogen) • Kit components: The substrate Z′-LYTE™ Ser/Thr 3 Peptide (PV3200) • The phosphorylation substrate Z′-LYTE™ Ser/Thr 3 Phospho-peptide (PV3215) • 5× kinase buffer: 250 mM HEPES (pH 7.5), 50 mM MgCl2, • 5 mM EGTA, 0.05% BRIJ-35 (PV3189, Invitrogen) • ATP (PV3227, Invitrogen) • Development Reagent A (PV3295, Invitrogen) • Development Buffer (P3127, Invitrogen) • Stop Reagent (P3094, Invitrogen) • Microplate reader: The multil-mode microplate reader PerkinElmer EnVision® • Microplate: black shallow 384-well microplate (6008269, PerkinElmer) (2). Assay Protocol:
The substrate Z′-LYTE™ Ser/Thr 3 Peptide, the phosphorylation substrate Z′-LYTE™ Ser/Thr 3 Phospho-peptide, 1× kinase buffer (5× kinase buffer was diluted with ultra pure water by five times), ATP, Development Reagent A, Development Buffer, Stop Reagent were balanced to room temperature for use. The screening concentrations for detecting the effect of the compounds of the invention on the ERK kinase activity were seven 3-fold serial dilutions starting from 1 μM (from 0.2 μM for the positive drug control) using 4% DMSO as co-solvent. 5 μL enzyme system (50 mM HEPES pH 7.5, 1 mM EGTA, 10 mM MgCl2, 0.01% Brij-35, 4 uM substrate, 0.8 ng/μL enzyme), 2.5 μL Compound, 2.5 μL 400 μM ATP were added into 384 well microplate, followed by incubation at room temperature for 60 min in the dark. After the reaction was completed, 5 μl the developing agent (Development Reagent A) diluted with the developing buffer (Development Buffer) was added to all reaction wells, followed by incubation at the room temperature for 60 min in the dark. 5 μL the terminating agent was added to each well to terminate the reaction. The fluorescence was determined using the multil-mode microplate reader PerkinElmer EnVision® (excitation wavelength 400 nm, emission wavelength 460 nm and 528 nm).
The inhibition rate of each well was calculated from 100% phosphorylation substrate well and 0% phosphorylation substrate well using the data analysis method below: phosphorylation %=1−{(emission rate×F100%−C100%)/[C0%−C100%+emission rate×(F100%−F0%)]}×100 inhibition %=100×(1−phosphorylation % of the test compound well/phosphorylation % of the 0% inhibition control) • wherein: • emission rate=fluorescence emission of the sample at 445 nm/fluorescence emission of the sample at 520 nm • F100%=the average fluorescence emission of the control well of 100% phosphorylation substrate at 520 nm • F0%=the average fluorescence emission of the control well of 0% phosphorylation substrate at 520 nm • C100%=the average fluorescence emission of the control well of 100% phosphorylation substrate at 445 nm • C0%=the average fluorescence emission of the control well of 0% phosphorylation substrate at 445 nm
Tests were carried out in duplicate. IC50 values were calculated from the inhibition of the kinase by the test compounds at a range of different concentrations.

ERK2 kinase, sequence (P28482 whole entry): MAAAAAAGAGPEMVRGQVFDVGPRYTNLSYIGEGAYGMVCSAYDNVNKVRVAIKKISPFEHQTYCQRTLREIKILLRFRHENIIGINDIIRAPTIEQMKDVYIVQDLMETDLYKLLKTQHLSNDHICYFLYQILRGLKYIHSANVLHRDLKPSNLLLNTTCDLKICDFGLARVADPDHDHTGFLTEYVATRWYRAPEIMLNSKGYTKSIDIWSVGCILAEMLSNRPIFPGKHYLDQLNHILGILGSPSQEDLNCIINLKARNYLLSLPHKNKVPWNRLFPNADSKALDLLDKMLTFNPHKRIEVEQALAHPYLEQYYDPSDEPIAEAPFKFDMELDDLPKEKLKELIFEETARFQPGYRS

IC50 (class symbols, read-out: ERK2 IC50): ≤ 10 nM
IC50 (read-out: IC50 against ERK2 kinase): 3.3 nM
Compound: Cn1nccc1Nc1cc(-c2cc(F)c3c(c2)CCN3C(=O)Cc2cccnc2Cl)ccn1 [Example P9, 2-(2-chloropyridin-3-yl)-1-(7-fluoro-5-(2-((1-methyl-1H-pyrazol-5-yl)amino)pyridin-4-yl)indolin-1-yl)ethan-1-one]
